Measurements: US20110004021A1, “THIAZOLECARBOXANILIDES” (priority 2005, published 2011)

System: Alternaria solani
Experiment: Activity against early blight of tomato caused by Alternaria solani
Type: in vivo
Settings: tomato cultivar Goldene Königin, protective spray 4 ppm, infected next day, assessed after 5 days; untreated plants 90% infected
Description: The active compounds were prepared as a stock solution comprising 25 mg of active compound which was filled up to 10 ml with a mixture of acetone and/or dimethyl sulfoxide and the emulsifier Uniperol® EL (wetting agent having an emulsifying and dispersing action based on ethoxylated alkylphenols) in a solvent/emulsifier volume ratio of 99 to 1. The solution was then made up to 100 ml with water. This stock solution was diluted with the solvent/emulsifier/water mixture described to the active compound concentration given below.
Leaves of potted plants of the cultivar “Goldene Königin” were sprayed to runoff point with an aqueous suspension having the concentration of active compounds stated below. The next day, the leaves were infected with an aqueous spore suspension of Alternaria solani in 2% biomalt solution having a density of 0.12×10^6 spores/ml. The plants were then placed in a water-vapor-saturated chamber at temperatures of between 20 and 22° C. After 5 days, the infection on the untreated, but infected control plants had developed to such an extent that the infection could be determined visually in %.

| SMILES | infection |
| --- | --- |
| Cc1nc(C(F)(F)F)c(C(=O)Nc2ccccc2-c2ccc(F)c(F)c2)s1 | 20% |
| Cc1nc(C(F)(F)F)c(C(=O)Nc2ccccc2-c2cc(F)c(F)c(F)c2)s1 [I.1, N-(3′,4′,5′-Trifluorobiphenyl-2-yl)-2-methyl-4-trifluoromethylthiazole-5-carboxamide] | at most 7% |
